What was measured:
NCI-H358 (K-Ras G12C) = experiment: CellTiter-Glo cell viability assay, 5-day treatment; type: cell-based; conditions: Homo sapiens, NCI-H358, 120 h, 5-day treatment; read-out: H358 Cell Viability assay data (K-Ras G12C, IC50)
Procedure, shortened: (§1)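 Compounds were dispensed directly onto seeded cells and incubated for 5 days, then plates were equilibrated to room temperature for about 30 minutes before luminescence reading. Signals were expressed as percent of the mean DMSO control and fitted with a four-parameter logistic curve.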

Capan-1 (K-Ras G12V) = experiment: as above; type: cell-based; conditions: Homo sapiens, CAPAN-1, 120 h, 5-day treatment; read-out: Capan-1 Cell Viability assay data (K-Ras G12V, IC50)
Procedure, shortened: as §1

KRAS G12S = KRAS G12S (Homo sapiens, UniProt P01116+P62937, G12S); experiment: Disruption of BRAF RBD interaction with Ras (FRET / MOA assay, with Cyclophilin A); type: biochemical; conditions: read-out: KRAS G12S FRET data, IC50
KRAS G12S, sequence (P01116 1-169 isoform P01116-2 G12S limits assumed): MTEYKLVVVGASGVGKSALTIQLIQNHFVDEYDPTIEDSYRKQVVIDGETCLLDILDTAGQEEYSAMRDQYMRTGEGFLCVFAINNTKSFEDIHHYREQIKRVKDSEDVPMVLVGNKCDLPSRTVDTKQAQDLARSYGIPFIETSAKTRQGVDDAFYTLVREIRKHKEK
KRAS G12S, sequence (P62937 whole entry): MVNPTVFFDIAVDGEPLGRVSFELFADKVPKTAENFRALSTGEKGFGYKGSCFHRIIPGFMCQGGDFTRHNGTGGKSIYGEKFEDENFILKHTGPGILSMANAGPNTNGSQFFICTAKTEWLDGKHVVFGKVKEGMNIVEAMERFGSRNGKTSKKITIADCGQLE
Procedure, shortened: (§2)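 First, compounds at a ten-point threefold dilution series (highest final concentration 30 μM) were incubated with nucleotide-loaded K-Ras, Cyclophilin A and BRAF RBD for 3 h at 25 °C. Next, detection antibodies were added for 1.5 h. Finally, IC50 was calculated from TR-FRET ratio decreases against DMSO controls.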

KRAS G13D = KRAS G13D (Homo sapiens, UniProt P01116+P62937, G13D); experiment: as above; type: biochemical; conditions: KRAS G13D; read-out: KRAS G13D FRET data IC50
KRAS G13D, sequence (P01116 1-169 isoform P01116-2 G13D limits assumed): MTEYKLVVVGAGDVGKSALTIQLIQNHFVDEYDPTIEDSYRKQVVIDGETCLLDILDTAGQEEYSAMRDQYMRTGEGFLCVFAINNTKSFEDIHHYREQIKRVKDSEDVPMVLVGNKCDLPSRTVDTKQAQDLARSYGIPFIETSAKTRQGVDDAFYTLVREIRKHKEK
KRAS G13D, sequence (P62937 whole entry): as the sequence (P62937 whole entry) above
Procedure, shortened: as §2

KRAS WT = KRAS WT (Homo sapiens, UniProt P01116+P62937); experiment: as above; type: biochemical; conditions: KRAS WT; read-out: KRAS WT FRET data IC50
KRAS WT, sequence (P01116 1-169 isoform P01116-2 limits assumed): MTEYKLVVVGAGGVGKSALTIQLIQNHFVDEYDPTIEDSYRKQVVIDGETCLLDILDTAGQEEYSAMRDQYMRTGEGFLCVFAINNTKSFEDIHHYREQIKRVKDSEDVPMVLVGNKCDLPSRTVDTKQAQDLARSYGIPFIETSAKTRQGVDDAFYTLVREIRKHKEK
KRAS WT, sequence (P62937 whole entry): as the sequence (P62937 whole entry) above
Procedure, shortened: as §2

NRAS G12C = NRAS G12C (Homo sapiens, UniProt P01111+P62937, G12C); experiment: as above; type: biochemical; conditions: NRAS G12C; read-out: NRAS G12C FRET data IC50
NRAS G12C, sequence (P01111 whole entry G12C): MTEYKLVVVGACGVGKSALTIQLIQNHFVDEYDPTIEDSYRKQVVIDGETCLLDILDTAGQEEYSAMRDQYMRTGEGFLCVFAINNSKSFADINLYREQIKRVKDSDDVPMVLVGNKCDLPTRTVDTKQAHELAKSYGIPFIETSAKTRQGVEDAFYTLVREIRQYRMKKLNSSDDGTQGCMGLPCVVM
NRAS G12C, sequence (P62937 whole entry): as the sequence (P62937 whole entry) above

KRAS G13C = KRAS G13C (Homo sapiens, UniProt P01116+P62937, G13C); experiment: as above; type: biochemical; conditions: read-out: KRAS G13C FRET data, IC50
KRAS G13C, sequence (P01116 1-169 isoform P01116-2 G13C): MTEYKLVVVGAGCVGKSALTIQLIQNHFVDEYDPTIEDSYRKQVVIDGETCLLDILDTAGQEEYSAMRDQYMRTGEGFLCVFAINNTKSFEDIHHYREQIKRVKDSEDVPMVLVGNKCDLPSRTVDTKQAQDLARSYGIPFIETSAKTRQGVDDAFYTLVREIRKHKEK
KRAS G13C, sequence (P62937 whole entry): as the sequence (P62937 whole entry) above
Procedure, shortened: as §2

KRAS G12C = KRAS G12C (Homo sapiens, UniProt P01116+P62937, G12C); experiment: as above; type: biochemical; conditions: read-out: KRAS G12C FRET data, IC50
KRAS G12C, sequence (P01116 1-169 isoform P01116-2 G12C): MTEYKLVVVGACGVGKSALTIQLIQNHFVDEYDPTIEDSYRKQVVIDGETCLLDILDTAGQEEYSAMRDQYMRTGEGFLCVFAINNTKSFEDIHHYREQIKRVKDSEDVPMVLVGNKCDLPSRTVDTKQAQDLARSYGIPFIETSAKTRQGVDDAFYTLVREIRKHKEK
KRAS G12C, sequence (P62937 whole entry): as the sequence (P62937 whole entry) above
Procedure, shortened: as §2

KRAS G12V = KRAS G12V (Homo sapiens, UniProt P01116+P62937, G12V); experiment: as above; type: biochemical; conditions: KRAS G12V; read-out: KRAS G12V FRET data IC50
KRAS G12V, sequence (P01116 1-169 isoform P01116-2 G12V limits assumed): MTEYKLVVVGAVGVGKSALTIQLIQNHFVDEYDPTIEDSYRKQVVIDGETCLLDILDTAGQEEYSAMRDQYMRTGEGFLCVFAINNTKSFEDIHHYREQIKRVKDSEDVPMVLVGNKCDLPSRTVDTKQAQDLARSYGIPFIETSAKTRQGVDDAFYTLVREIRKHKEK
KRAS G12V, sequence (P62937 whole entry): as the sequence (P62937 whole entry) above
Procedure, shortened: as §2

KRAS G12D = KRAS G12D (Homo sapiens, UniProt P01116+P62937, G12D); experiment: as above; type: biochemical; conditions: read-out: KRAS G12D FRET data, IC50
KRAS G12D, sequence (P01116 1-169 isoform P01116-2 G12D limits assumed): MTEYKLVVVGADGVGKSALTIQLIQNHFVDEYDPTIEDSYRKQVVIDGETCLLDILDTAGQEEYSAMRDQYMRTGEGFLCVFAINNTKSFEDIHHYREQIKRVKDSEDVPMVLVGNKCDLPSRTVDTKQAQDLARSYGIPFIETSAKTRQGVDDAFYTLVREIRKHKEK
KRAS G12D, sequence (P62937 whole entry): as the sequence (P62937 whole entry) above
Procedure, shortened: as §2

Compound	IC50 (NCI-H358 (K-Ras G12C))	IC50 (KRAS G12S)	IC50 (KRAS G13D)	IC50 (KRAS WT)	IC50 (NRAS G12C)	IC50 (KRAS G13C)	IC50 (KRAS G12C)	IC50 (KRAS G12V)	IC50 (KRAS G12D)	IC50 (Capan-1 (K-Ras G12V))
CCn1c(-c2cnccc2[C@H](C)OC)c2c3cc(ccc31)-c1cc(O)cc(c1)C[C@H](NC(=O)[C@H](C(C)C)N(C)C(C)=O)C(=O)N1CCC[C@H](N1)C(=O)OCC(C)(C)C2 [Example A21]	100 to 1000 nM	100 to 1000 nM	100 to 1000 nM	100 to 1000 nM	100 to 1000 nM	10 to 100 nM	100 to 1000 nM	100 to 1000 nM	1000 to 10000 nM	100 to 1000 nM
CCn1c(-c2cccnc2[C@H](C)OC)c2c3cc(ccc31)-c1cc(O)cc(c1)C[C@H](NC(=O)[C@H](C(C)C)N(C)C(=O)[C@H]1CCN(C(=O)CN(C)C)C1)C(=O)N1CCC[C@H](N1)C(=O)OCC(C)(C)C2 [Example A95]	100 to 1000 nM	10 to 100 nM	10 to 100 nM	10 to 100 nM	10 to 100 nM	10 to 100 nM	10 to 100 nM	10 to 100 nM	10 to 100 nM	100 to 1000 nM
CCn1c(-c2cnccc2COC)c2c3cc(ccc31)-c1cc(O)cc(c1)C[C@H](NC(=O)C1CCCC1C(F)F)C(=O)N1CCC[C@H](N1)C(=O)OCC(C)(C)C2 (some centres unmarked) [Example A261]	1000 to 10000 nM	1000 to 10000 nM	1000 to 10000 nM	1000 to 10000 nM	1000 to 10000 nM	1000 to 10000 nM	1000 to 10000 nM	1000 to 10000 nM	> 10000 nM	1000 to 10000 nM
CCn1c(-c2cccnc2[C@H](C)OC)c2c3cc(ccc31)-c1cc(O)cc(c1)C[C@H](NC(=O)[C@H](C(C)C)N(C)C(=O)[C@H]1CCN[C@H]1C)C(=O)N1CCC[C@H](N1)C(=O)OCC(C)(C)C2 [Example A127]	1000 to 10000 nM	10 to 100 nM	10 to 100 nM	10 to 100 nM	10 to 100 nM	10 to 100 nM	10 to 100 nM	100 to 1000 nM	10 to 100 nM	> 10000 nM
CCn1c(-c2cccnc2[C@H](C)OC)c2c3cc(ccc31)-c1cc(O)cc(c1)C[C@H](NC(=O)[C@H](C(C)C)N(C)C(=O)[C@H]1C[C@H]1C)C(=O)N1CCC[C@H](N1)C(=O)OCC(C)(C)C2 [Example A146]	100 to 1000 nM	100 to 1000 nM	100 to 1000 nM	10 to 100 nM	10 to 100 nM	10 to 100 nM	10 to 100 nM	10 to 100 nM	100 to 1000 nM	100 to 1000 nM

More lines, main results first:

IC50 (NCI-H358 (K-Ras G12C))	IC50 (KRAS G12S)	IC50 (KRAS G13D)	IC50 (KRAS WT)	IC50 (NRAS G12C)	IC50 (KRAS G13C)	IC50 (KRAS G12C)	IC50 (KRAS G12V)	IC50 (KRAS G12D)	Compound	IC50 (Capan-1 (K-Ras G12V))
10 to 100 nM	100 to 1000 nM	100 to 1000 nM	100 to 1000 nM	100 to 1000 nM	100 to 1000 nM	100 to 1000 nM	100 to 1000 nM	100 to 1000 nM	CCn1c(-c2cccnc2[C@H](C)OC)c2c3cc(ccc31)-c1csc(n1)C[C@H](NC(=O)[C@H](C(C)C)N(C)C(=O)N1CCOC3(CN(C)C3)C1)C(=O)N1CCC[C@H](N1)C(=O)OCC(C)(C)C2 [Example A294]	100 to 1000 nM
100 to 1000 nM	10 to 100 nM	10 to 100 nM	10 to 100 nM	10 to 100 nM	10 to 100 nM	10 to 100 nM	100 to 1000 nM	10 to 100 nM	CCn1c(-c2cccnc2[C@H](C)OC)c2c3cc(ccc31)-c1cc(O)cc(c1)C[C@H](NC(=O)[C@H](C(C)C)N(C)C(=O)[C@H]1CC[C@@H](CN(C)C)O1)C(=O)N1CCC[C@H](N1)C(=O)OCC(C)(C)C2 [Example A397]	100 to 1000 nM
10 to 100 nM	100 to 1000 nM	100 to 1000 nM	100 to 1000 nM	100 to 1000 nM	100 to 1000 nM	100 to 1000 nM	100 to 1000 nM	1000 to 10000 nM	CCn1c(-c2cccnc2[C@H](C)OC)c2c3cc(ccc31)-c1csc(n1)C[C@H](NC(=O)[C@H](C(C)C)N(C)C(=O)N1CC(N3CCCC3)C1)C(=O)N1CCC[C@H](N1)C(=O)OCC(C)(C)C2 [Example A329]	10 to 100 nM

— patent US20230233569A1 (Revolution Medicines, Inc., priority 2020, published 2023)
